Assay results as given in ChEMBL document CHEMBL3779859, “Synergistic activity of a short lipidated antimicrobial peptide (lipoAMP) and colistin or tobramycin against Pseudomonas aeruginosa from cystic fibrosis patients” (Medchemcomm, 2016).
≈ marks a conversion by molar mass, not a printed value. Peptide text beside a SMILES is read from it. * marks the point of attachment. Myristoyl = CCCCCCCCCCCCCC(=O)*; Lauroyl = CCCCCCCCCCCC(=O)*; Decanoyl = CCCCCCCCCC(=O)*; Octanoyl = CCCCCCCC(=O)*; Hexanoyl = CCCCCC(=O)*

Tests used:
Assay type in all cases: functional
Pseudomonas aeruginosa [1] = assay: Antibacterial activity against Pseudomonas aeruginosa KD491 clinical isolate after 16 to 20 hrs by microdilution assay
Pseudomonas aeruginosa [2] = assay: Antibacterial activity against Pseudomonas aeruginosa VW1633 clinical isolate after 16 to 20 hrs by microdilution assay
Pseudomonas aeruginosa [3] = assay: Antibacterial activity against Pseudomonas aeruginosa LES431 clinical isolate after 16 to 20 hrs by microdilution assay
Pseudomonas aeruginosa [4] = assay: Antibacterial activity against Pseudomonas aeruginosa LES400 clinical isolate after 16 to 20 hrs by microdilution assay
Pseudomonas aeruginosa [5] = assay: Antibacterial activity against Pseudomonas aeruginosa kl 1.1 clinical isolate after 16 to 20 hrs by microdilution assay
Pseudomonas aeruginosa [6] = assay: Antibacterial activity against Pseudomonas aeruginosa VW1501 clinical isolate after 16 to 20 hrs by microdilution assay
Pseudomonas aeruginosa [7] = assay: Antibacterial activity against Pseudomonas aeruginosa KD557 clinical isolate after 16 to 20 hrs by microdilution assay
Pseudomonas aeruginosa [8] = assay: Antibacterial activity against Pseudomonas aeruginosa PAO1 clinical isolate after 16 to 20 hrs by microdilution assay
Pseudomonas aeruginosa [9] = assay: Antibacterial activity against Pseudomonas aeruginosa VW178 clinical isolate after 16 to 20 hrs by microdilution assay
Pseudomonas aeruginosa [10] = assay: Antibacterial activity against Pseudomonas aeruginosa MIDLANDS clinical isolate after 16 to 20 hrs by microdilution assay
Pseudomonas aeruginosa [11] = assay: Antibacterial activity against Pseudomonas aeruginosa VW1540 clinical isolate after 16 to 20 hrs by microdilution assay
Pseudomonas aeruginosa [12] = assay: Antibacterial activity against Pseudomonas aeruginosa VW313 clinical isolate after 16 to 20 hrs by microdilution assay
Pseudomonas aeruginosa [13] = assay: Antibacterial activity against Pseudomonas aeruginosa VW1485 clinical isolate after 16 to 20 hrs by microdilution assay
Pseudomonas aeruginosa [14] = assay: Antibacterial activity against Pseudomonas aeruginosa VW1471 clinical isolate after 16 to 20 hrs by microdilution assay
Pseudomonas aeruginosa [15] = assay: Antibacterial activity against Pseudomonas aeruginosa D599 clinical isolate after 16 to 20 hrs by microdilution assay
Pseudomonas aeruginosa [16] = assay: Antibacterial activity against Pseudomonas aeruginosa kl 3.2 clinical isolate after 16 to 20 hrs by microdilution assay
Pseudomonas aeruginosa [17] = assay: Antibacterial activity against Pseudomonas aeruginosa Clone C clinical isolate after 16 to 20 hrs by microdilution assay
Pseudomonas aeruginosa [18] = assay: Antibacterial activity against Pseudomonas aeruginosa VW0247 clinical isolate after 16 to 20 hrs by microdilution assay
Pseudomonas aeruginosa [19] = assay: Antibacterial activity against Pseudomonas aeruginosa LESB58 clinical isolate after 16 to 20 hrs by microdilution assay

MIC (Pseudomonas aeruginosa [1]) [µg/mL]	MIC (Pseudomonas aeruginosa [2]) [µg/mL]	MIC (Pseudomonas aeruginosa [3]) [µg/mL]	SMILES	further results
64 (≈ 50.3 µM)	32 (≈ 25.2 µM)	> 128	CCCCCC(=O)N[C@@H](CCCNC(=N)N)C(=O)N[C@@H](Cc1c[nH]c2ccccc12)C(=O)N[C@@H](CCCNC(=N)N)C(=O)N[C@@H](Cc1c[nH]c2ccccc12)C(=O)N[C@@H](CCCNC(=N)N)C(=O)N[C@@H](Cc1c[nH]c2ccccc12)C(=O)N[C@@H](CCCCN)C(=O)O (Hexanoyl-RWRWRWK-OH)	
> 128	32 (≈ 23.6 µM)	64 (≈ 47.2 µM)	CCCCCCCCCCCC(=O)NCCCC[C@H](NC(=O)[C@H](Cc1c[nH]c2ccccc12)NC(=O)[C@H](CCCNC(=N)N)NC(=O)[C@H](Cc1c[nH]c2ccccc12)NC(=O)[C@H](CCCNC(=N)N)NC(=O)[C@H](Cc1c[nH]c2ccccc12)NC(=O)[C@@H](N)CCCNC(=N)N)C(=O)O (H-RWRWRWK(Lauroyl)-OH)	
> 128	> 128	> 128	CCCCCCCCCCCCCC(=O)N[C@@H](CCCNC(=N)N)C(=O)N[C@@H](Cc1c[nH]c2ccccc12)C(=O)N[C@@H](CCCNC(=N)N)C(=O)N[C@@H](Cc1c[nH]c2ccccc12)C(=O)N[C@@H](CCCNC(=N)N)C(=O)N[C@@H](Cc1c[nH]c2ccccc12)C(=O)N[C@@H](CCCCN)C(=O)O (Myristoyl-RWRWRWK-OH)	
16 (≈ 12.3 µM)	16 (≈ 12.3 µM)	128 (≈ 98.5 µM)	CCCCCCCC(=O)NCCCC[C@H](NC(=O)[C@H](Cc1c[nH]c2ccccc12)NC(=O)[C@H](CCCNC(=N)N)NC(=O)[C@H](Cc1c[nH]c2ccccc12)NC(=O)[C@H](CCCNC(=N)N)NC(=O)[C@H](Cc1c[nH]c2ccccc12)NC(=O)[C@@H](N)CCCNC(=N)N)C(=O)O (H-RWRWRWK(Octanoyl)-OH)	
32 (≈ 24.1 µM)	64 (≈ 48.2 µM)	32 (≈ 24.1 µM)	CCCCCCCCCC(=O)N[C@@H](CCCNC(=N)N)C(=O)N[C@@H](Cc1c[nH]c2ccccc12)C(=O)N[C@@H](CCCNC(=N)N)C(=O)N[C@@H](Cc1c[nH]c2ccccc12)C(=O)N[C@@H](CCCNC(=N)N)C(=O)N[C@@H](Cc1c[nH]c2ccccc12)C(=O)N[C@@H](CCCCN)C(=O)O (Decanoyl-RWRWRWK-OH)	
16 (≈ 12.3 µM)	32 (≈ 24.6 µM)	64 (≈ 49.2 µM)	CCCCCCCC(=O)N[C@@H](CCCNC(=N)N)C(=O)N[C@@H](Cc1c[nH]c2ccccc12)C(=O)N[C@@H](CCCNC(=N)N)C(=O)N[C@@H](Cc1c[nH]c2ccccc12)C(=O)N[C@@H](CCCNC(=N)N)C(=O)N[C@@H](Cc1c[nH]c2ccccc12)C(=O)N[C@@H](CCCCN)C(=O)O (Octanoyl-RWRWRWK-OH)	

SMILES	MIC (Pseudomonas aeruginosa [1]) [µg/mL]	MIC (Pseudomonas aeruginosa [2]) [µg/mL]	MIC (Pseudomonas aeruginosa [3]) [µg/mL]	further results
C[C@@H](O)[C@H]1C(=O)N2C(C(=O)O)=C(S[C@@H]3CN[C@H](C(=O)N(C)C)C3)[C@H](C)[C@H]12 [MEROPENEM]	16 (≈ 41.7 µM)	1 (≈ 2.61 µM)	8 (≈ 20.9 µM)	MIC (Pseudomonas aeruginosa [4]): 2 µg/mL (≈ 5.22 µM); MIC (Pseudomonas aeruginosa [5]): 4 µg/mL (≈ 10.4 µM); MIC (Pseudomonas aeruginosa [6]): 0.25 µg/mL (≈ 0.652 µM); MIC (Pseudomonas aeruginosa [7]): 1 µg/mL (≈ 2.61 µM); MIC (Pseudomonas aeruginosa [8]): 2 µg/mL (≈ 5.22 µM); MIC (Pseudomonas aeruginosa [9]): 2 µg/mL (≈ 5.22 µM); MIC (Pseudomonas aeruginosa [10]): 16 µg/mL (≈ 41.7 µM); MIC (Pseudomonas aeruginosa [11]): 1 µg/mL (≈ 2.61 µM); MIC (Pseudomonas aeruginosa [12]): 16 µg/mL (≈ 41.7 µM); MIC (Pseudomonas aeruginosa [13]): 0.25 µg/mL (≈ 0.652 µM); MIC (Pseudomonas aeruginosa [14]): 32 µg/mL (≈ 83.4 µM); MIC (Pseudomonas aeruginosa [15]): 0.5 µg/mL (≈ 1.3 µM); MIC (Pseudomonas aeruginosa [16]): 4 µg/mL (≈ 10.4 µM); MIC (Pseudomonas aeruginosa [17]): 2 µg/mL (≈ 5.22 µM); MIC (Pseudomonas aeruginosa [18]): 0.25 µg/mL (≈ 0.652 µM); MIC (Pseudomonas aeruginosa [19]): 2 µg/mL (≈ 5.22 µM)
